*1 amine or outer side, *2 acyl side, *3 side chain or, on linkers, in order; H or OH if unused. Where a SMILES comes first, the peptide text is derived from it. Bridges are numbered along the chain shown (N, C = ends). [ ]: non-standard residue; d: D form. The star is where a group is joined. X24 = O=C([C@H](Cc1ccc(C(F)(F)F)cc1)N(CCC(F)(F)F)[*:1])[*:2]; X6 = CC(C)(C)CCN([C@@H](Cc1ccc(C(F)(F)F)cc1)C(=O)[*:2])[*:1]; X21 = O=C([C@H](Cc1ccc(C(F)(F)F)cc1)N(CC1CCCC1)[*:1])[*:2]; hPhe(3-Cl-4-CF3) = N[C@@H](CCc1ccc(C(F)(F)F)c(Cl)c1)C(=O)O; X23 = CC(C)CN([C@@H](Cc1ccc(C(F)(F)F)cc1)C(=O)[*:2])[*:1]; X37 = O=C([C@H](Cc1ccc(C(F)(F)F)cc1)N(CC1CCC1)[*:1])[*:2]; X18 = C=CCCN([C@@H](Cc1ccc(C(F)(F)F)cc1)C(=O)[*:2])[*:1]; X31 = O=C([C@H](Cc1ccc(C(F)(F)F)cc1)N(CC1CC1)[*:1])[*:2]; X42 = COCCCN([C@@H](Cc1ccc(C(F)(F)F)cc1)C(=O)[*:2])[*:1]; X11 = C=CCN([C@@H](Cc1ccc(C(F)(F)F)cc1)C(=O)[*:2])[*:1]; X17 = CCCCN([C@@H](Cc1ccc(C(F)(F)F)cc1)C(=O)[*:2])[*:1]; X28 = C#CCN([C@@H](Cc1ccc(C(F)(F)F)cc1)C(=O)[*:2])[*:1]; X32 = COCCN([C@@H](Cc1ccc(C(F)(F)F)cc1)C(=O)[*:2])[*:1]; NMeGly(cPent) = CN[C@H](C(=O)O)C1CCCC1; NMeD = CN[C@@H](CC(=O)O)C(=O)O; NMeL = CN[C@@H](CC(C)C)C(=O)O; Morpholide = C1CN(*)CCO1; NMeA = CN[C@@H](C)C(=O)O; Ac5c = NC1(C(=O)O)CCCC1; Aze = O=C(O)[C@@H]1CCN1; Sar = CNCC(=O)O
What was measured:
[1] = target: GDP-bound HRAS wild-type protein (Homo sapiens, UniProt P01112); experiment: Binding to HRAS by surface plasmon resonance (SPR), Single Cycle Kinetics; settings: KD ratio HRAS/KRAS, SPR
[2] = target: GDP-bound NRAS wild-type protein (Homo sapiens, UniProt P01111); experiment: Binding to NRAS by surface plasmon resonance (SPR), Single Cycle Kinetics; settings: KD ratio NRAS/KRAS, SPR
Sequence of GDP-bound NRAS wild-type protein (P01111 whole entry): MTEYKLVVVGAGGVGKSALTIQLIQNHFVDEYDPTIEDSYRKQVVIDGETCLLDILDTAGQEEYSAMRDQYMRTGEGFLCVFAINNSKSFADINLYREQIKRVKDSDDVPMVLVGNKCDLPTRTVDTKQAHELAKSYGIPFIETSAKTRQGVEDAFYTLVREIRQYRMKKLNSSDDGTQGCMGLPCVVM

Sequence of GDP-bound HRAS wild-type protein (P01112 whole entry): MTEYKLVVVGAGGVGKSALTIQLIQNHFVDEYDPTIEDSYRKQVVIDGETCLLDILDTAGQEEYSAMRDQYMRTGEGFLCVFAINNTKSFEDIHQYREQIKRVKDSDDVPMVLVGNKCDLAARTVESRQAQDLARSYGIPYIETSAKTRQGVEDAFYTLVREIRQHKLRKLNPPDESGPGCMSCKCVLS

CC[C@H](C)[C@@H]1NC(=O)[C@H](CC(C)C)N(C)C(=O)C[C@@H](C(=O)N2CCOCC2)N(C)C(=O)[C@H](C2CCCC2)N(C)C(=O)C2(CCCC2)NC(=O)[C@@H]2CCCN2C(=O)[C@H](CCc2ccc(C(F)(F)F)c(Cl)c2)NC(=O)CN(C)C(=O)[C@H](Cc2ccc(C(F)(F)F)cc2)N(CCC(C)(C)C)C(=O)[C@@H]2CCN2C(=O)[C@H](C)N(C)C1=O [PP0113] ([NMeL]I[NMeA][Aze][X6][Sar][hPhe(3-Cl-4-CF3)]P[Ac5c][NMeGly(cPent)][NMeD]-Morpholide; lactam N-11)
HRAS/KRAS (ratio of KD for GDP-bound HRAS wild-type to KD for KRAS) [1]: B (a compound having 3 or more and less than 10 is denoted as B) | NRAS/KRAS (ratio of KD for GDP-bound NRAS wild-type to KD for KRAS) [2]: C (A compound having a KD ratio of 0.1 or more and less than 3 is denoted as C)

C=CCN1C(=O)[C@@H]2CCN2C(=O)[C@H](C)N(C)C(=O)[C@H]([C@@H](C)CC)NC(=O)[C@H](CC(C)C)N(C)C(=O)C[C@@H](C(=O)N2CCOCC2)N(C)C(=O)[C@H](C2CCCC2)N(C)C(=O)C2(CCCC2)NC(=O)[C@@H]2CCCN2C(=O)[C@H](CCc2ccc(C(F)(F)F)c(Cl)c2)NC(=O)CN(C)C(=O)[C@@H]1Cc1ccc(C(F)(F)F)cc1 [PP0114] ([NMeL]I[NMeA][Aze][X11][Sar][hPhe(3-Cl-4-CF3)]P[Ac5c][NMeGly(cPent)][NMeD]-Morpholide; lactam N-11)
HRAS/KRAS (ratio of KD for GDP-bound HRAS wild-type to KD for KRAS) [1]: C (A compound having a KD ratio of 0.1 or more and less than 3 is denoted as C) | NRAS/KRAS (ratio of KD for GDP-bound NRAS wild-type to KD for KRAS) [2]: C (A compound having a KD ratio of 0.1 or more and less than 3 is denoted as C)

C=CCCN1C(=O)[C@@H]2CCN2C(=O)[C@H](C)N(C)C(=O)[C@H]([C@@H](C)CC)NC(=O)[C@H](CC(C)C)N(C)C(=O)C[C@@H](C(=O)N2CCOCC2)N(C)C(=O)[C@H](C2CCCC2)N(C)C(=O)C2(CCCC2)NC(=O)[C@@H]2CCCN2C(=O)[C@H](CCc2ccc(C(F)(F)F)c(Cl)c2)NC(=O)CN(C)C(=O)[C@@H]1Cc1ccc(C(F)(F)F)cc1 [PP0115] ([NMeL]I[NMeA][Aze][X18][Sar][hPhe(3-Cl-4-CF3)]P[Ac5c][NMeGly(cPent)][NMeD]-Morpholide; lactam N-11)
HRAS/KRAS (ratio of KD for GDP-bound HRAS wild-type to KD for KRAS) [1]: C (A compound having a KD ratio of 0.1 or more and less than 3 is denoted as C) | NRAS/KRAS (ratio of KD for GDP-bound NRAS wild-type to KD for KRAS) [2]: C (A compound having a KD ratio of 0.1 or more and less than 3 is denoted as C)

C#CCN1C(=O)[C@@H]2CCN2C(=O)[C@H](C)N(C)C(=O)[C@H]([C@@H](C)CC)NC(=O)[C@H](CC(C)C)N(C)C(=O)C[C@@H](C(=O)N2CCOCC2)N(C)C(=O)[C@H](C2CCCC2)N(C)C(=O)C2(CCCC2)NC(=O)[C@@H]2CCCN2C(=O)[C@H](CCc2ccc(C(F)(F)F)c(Cl)c2)NC(=O)CN(C)C(=O)[C@@H]1Cc1ccc(C(F)(F)F)cc1 [PP0116] ([NMeL]I[NMeA][Aze][X28][Sar][hPhe(3-Cl-4-CF3)]P[Ac5c][NMeGly(cPent)][NMeD]-Morpholide; lactam N-11)
HRAS/KRAS (ratio of KD for GDP-bound HRAS wild-type to KD for KRAS) [1]: C (A compound having a KD ratio of 0.1 or more and less than 3 is denoted as C) | NRAS/KRAS (ratio of KD for GDP-bound NRAS wild-type to KD for KRAS) [2]: C (A compound having a KD ratio of 0.1 or more and less than 3 is denoted as C)

CC[C@H](C)[C@@H]1NC(=O)[C@H](CC(C)C)N(C)C(=O)C[C@@H](C(=O)N2CCOCC2)N(C)C(=O)[C@H](C2CCCC2)N(C)C(=O)C2(CCCC2)NC(=O)[C@@H]2CCCN2C(=O)[C@H](CCc2ccc(C(F)(F)F)c(Cl)c2)NC(=O)CN(C)C(=O)[C@H](Cc2ccc(C(F)(F)F)cc2)N(CCC(F)(F)F)C(=O)[C@@H]2CCN2C(=O)[C@H](C)N(C)C1=O [PP0117] ([NMeL]I[NMeA][Aze][X24][Sar][hPhe(3-Cl-4-CF3)]P[Ac5c][NMeGly(cPent)][NMeD]-Morpholide; lactam N-11)
HRAS/KRAS (ratio of KD for GDP-bound HRAS wild-type to KD for KRAS) [1]: B (a compound having 3 or more and less than 10 is denoted as B) | NRAS/KRAS (ratio of KD for GDP-bound NRAS wild-type to KD for KRAS) [2]: B (a compound having 3 or more and less than 10 is denoted as B)

CC[C@H](C)[C@@H]1NC(=O)[C@H](CC(C)C)N(C)C(=O)C[C@@H](C(=O)N2CCOCC2)N(C)C(=O)[C@H](C2CCCC2)N(C)C(=O)C2(CCCC2)NC(=O)[C@@H]2CCCN2C(=O)[C@H](CCc2ccc(C(F)(F)F)c(Cl)c2)NC(=O)CN(C)C(=O)[C@H](Cc2ccc(C(F)(F)F)cc2)N(CCOC)C(=O)[C@@H]2CCN2C(=O)[C@H](C)N(C)C1=O [PP0118] ([NMeL]I[NMeA][Aze][X32][Sar][hPhe(3-Cl-4-CF3)]P[Ac5c][NMeGly(cPent)][NMeD]-Morpholide; lactam N-11)
HRAS/KRAS (ratio of KD for GDP-bound HRAS wild-type to KD for KRAS) [1]: C (A compound having a KD ratio of 0.1 or more and less than 3 is denoted as C) | NRAS/KRAS (ratio of KD for GDP-bound NRAS wild-type to KD for KRAS) [2]: C (A compound having a KD ratio of 0.1 or more and less than 3 is denoted as C)

CC[C@H](C)[C@@H]1NC(=O)[C@H](CC(C)C)N(C)C(=O)C[C@@H](C(=O)N2CCOCC2)N(C)C(=O)[C@H](C2CCCC2)N(C)C(=O)C2(CCCC2)NC(=O)[C@@H]2CCCN2C(=O)[C@H](CCc2ccc(C(F)(F)F)c(Cl)c2)NC(=O)CN(C)C(=O)[C@H](Cc2ccc(C(F)(F)F)cc2)N(CCCOC)C(=O)[C@@H]2CCN2C(=O)[C@H](C)N(C)C1=O [PP0119] ([NMeL]I[NMeA][Aze][X42][Sar][hPhe(3-Cl-4-CF3)]P[Ac5c][NMeGly(cPent)][NMeD]-Morpholide; lactam N-11)
HRAS/KRAS (ratio of KD for GDP-bound HRAS wild-type to KD for KRAS) [1]: C (A compound having a KD ratio of 0.1 or more and less than 3 is denoted as C) | NRAS/KRAS (ratio of KD for GDP-bound NRAS wild-type to KD for KRAS) [2]: C (A compound having a KD ratio of 0.1 or more and less than 3 is denoted as C)

CCCCN1C(=O)CN(C)C(=O)CN(C)C(=O)[C@H]([C@@H](C)CC)NC(=O)[C@H](CC(C)C)N(C)C(=O)C[C@@H](C(=O)N2CCOCC2)N(C)C(=O)[C@H](C2CCCC2)N(C)C(=O)C2(CCCC2)NC(=O)[C@@H]2CCCN2C(=O)[C@H](CCc2ccc(C(F)(F)F)c(Cl)c2)NC(=O)CN(C)C(=O)[C@@H]1Cc1ccc(C(F)(F)F)cc1 [PP0120] ([NMeL]I[Sar][Sar][X17][Sar][hPhe(3-Cl-4-CF3)]P[Ac5c][NMeGly(cPent)][NMeD]-Morpholide; lactam N-11)
HRAS/KRAS (ratio of KD for GDP-bound HRAS wild-type to KD for KRAS) [1]: C (A compound having a KD ratio of 0.1 or more and less than 3 is denoted as C) | NRAS/KRAS (ratio of KD for GDP-bound NRAS wild-type to KD for KRAS) [2]: B (a compound having 3 or more and less than 10 is denoted as B)

CC[C@H](C)[C@@H]1NC(=O)[C@H](CC(C)C)N(C)C(=O)C[C@@H](C(=O)N2CCOCC2)N(C)C(=O)[C@H](C2CCCC2)N(C)C(=O)C2(CCCC2)NC(=O)[C@@H]2CCCN2C(=O)[C@H](CCc2ccc(C(F)(F)F)c(Cl)c2)NC(=O)CN(C)C(=O)[C@H](Cc2ccc(C(F)(F)F)cc2)N(CC(C)C)C(=O)CN(C)C(=O)CN(C)C1=O [PP0121] ([NMeL]I[Sar][Sar][X23][Sar][hPhe(3-Cl-4-CF3)]P[Ac5c][NMeGly(cPent)][NMeD]-Morpholide; lactam N-11)
HRAS/KRAS (ratio of KD for GDP-bound HRAS wild-type to KD for KRAS) [1]: C (A compound having a KD ratio of 0.1 or more and less than 3 is denoted as C) | NRAS/KRAS (ratio of KD for GDP-bound NRAS wild-type to KD for KRAS) [2]: C (A compound having a KD ratio of 0.1 or more and less than 3 is denoted as C)

CC[C@H](C)[C@@H]1NC(=O)[C@H](CC(C)C)N(C)C(=O)C[C@@H](C(=O)N2CCOCC2)N(C)C(=O)[C@H](C2CCCC2)N(C)C(=O)C2(CCCC2)NC(=O)[C@@H]2CCCN2C(=O)[C@H](CCc2ccc(C(F)(F)F)c(Cl)c2)NC(=O)CN(C)C(=O)[C@H](Cc2ccc(C(F)(F)F)cc2)N(CC2CC2)C(=O)CN(C)C(=O)CN(C)C1=O [PP0122] ([NMeL]I[Sar][Sar][X31][Sar][hPhe(3-Cl-4-CF3)]P[Ac5c][NMeGly(cPent)][NMeD]-Morpholide; lactam N-11)
HRAS/KRAS (ratio of KD for GDP-bound HRAS wild-type to KD for KRAS) [1]: C (A compound having a KD ratio of 0.1 or more and less than 3 is denoted as C) | NRAS/KRAS (ratio of KD for GDP-bound NRAS wild-type to KD for KRAS) [2]: C (A compound having a KD ratio of 0.1 or more and less than 3 is denoted as C)

CC[C@H](C)[C@@H]1NC(=O)[C@H](CC(C)C)N(C)C(=O)C[C@@H](C(=O)N2CCOCC2)N(C)C(=O)[C@H](C2CCCC2)N(C)C(=O)C2(CCCC2)NC(=O)[C@@H]2CCCN2C(=O)[C@H](CCc2ccc(C(F)(F)F)c(Cl)c2)NC(=O)CN(C)C(=O)[C@H](Cc2ccc(C(F)(F)F)cc2)N(CC2CCC2)C(=O)CN(C)C(=O)CN(C)C1=O [PP0123] ([NMeL]I[Sar][Sar][X37][Sar][hPhe(3-Cl-4-CF3)]P[Ac5c][NMeGly(cPent)][NMeD]-Morpholide; lactam N-11)
HRAS/KRAS (ratio of KD for GDP-bound HRAS wild-type to KD for KRAS) [1]: C (A compound having a KD ratio of 0.1 or more and less than 3 is denoted as C) | NRAS/KRAS (ratio of KD for GDP-bound NRAS wild-type to KD for KRAS) [2]: B (a compound having 3 or more and less than 10 is denoted as B)

CC[C@H](C)[C@@H]1NC(=O)[C@H](CC(C)C)N(C)C(=O)C[C@@H](C(=O)N2CCOCC2)N(C)C(=O)[C@H](C2CCCC2)N(C)C(=O)C2(CCCC2)NC(=O)[C@@H]2CCCN2C(=O)[C@H](CCc2ccc(C(F)(F)F)c(Cl)c2)NC(=O)CN(C)C(=O)[C@H](Cc2ccc(C(F)(F)F)cc2)N(CC2CCCC2)C(=O)CN(C)C(=O)CN(C)C1=O [PP0124] ([NMeL]I[Sar][Sar][X21][Sar][hPhe(3-Cl-4-CF3)]P[Ac5c][NMeGly(cPent)][NMeD]-Morpholide; lactam N-11)
HRAS/KRAS (ratio of KD for GDP-bound HRAS wild-type to KD for KRAS) [1]: C (A compound having a KD ratio of 0.1 or more and less than 3 is denoted as C) | NRAS/KRAS (ratio of KD for GDP-bound NRAS wild-type to KD for KRAS) [2]: C (A compound having a KD ratio of 0.1 or more and less than 3 is denoted as C)
